This is an account of results in article PMC6099728, “Investigation of Hydro-Lipophilic Properties of N-Alkoxyphenylhydroxynaphthalenecarboxamides” (Molecules : A Journal of Synthetic Chemistry and Natural …, 2018).

This series in a line: Lipophilicity determination by RP-HPLC (capacity factor k / logk). Particulars: for logk: isocratic MeOH 72%/H2O 28%, C18 column, 40 °C; for πB (distributive parameter π calculated from logk) / πA (distributive parameter π calculated from logk) / πC (distributive parameter π calculated from logk): π = logkS − logkU; for πB (distributive parameter π calculated from logk): unsubstituted 1b as reference; for πA (distributive parameter π calculated from logk): unsubstituted 1a as reference; for πC (distributive parameter π calculated from logk): unsubstituted 1c as reference. The format is physicochemical. From the text:
A HPLC separation module Waters Alliance 2695 XE equipped with a Waters Dual Absorbance Detector 2486 (Waters Corp., Milford, MA, USA) was used. A chromatographic column Symmetry® C18 5 µm, 4.6 × 250 mm, Part No. W21751W016 (Waters Corp.) was used. The HPLC separation process was monitored by Empower® 3 Chromatography Manager Software (Waters Corp.). Isocratic elution by a mixture of MeOH p.a. (72%) and H2O-HPLC Mili-Q grade (28%) as a mobile phase was used. The total flow of the column was 1.0 mL/min, the injection was 20 μL, the column temperature was 40 °C, and the sample temperature was 10 °C. A detection wavelength of 210 nm was chosen. The KI methanolic solution was used for the determination of dead time (tD). Retention times (tR) were measured in minutes. Capacity factors k were calculated using the Empower® 3 Chromatography Manager Software according to the formula k = (tR − tD)/tD, where tR is the retention time of the solute, while tD is the dead time obtained using an unretained analyte. Each experiment was repeated three times. Logk, which was calculated from the capacity factor k, is used as the lipophilicity index converted to the logP scale.

In the case of `CCOc1cccc(NC(=O)c2ccc3ccccc3c2O)c1` [6b], where the note is “series B”, the logk was 0.8353 and the “πB (distributive parameter π calculated from logk)” value is 0.36.
Regarding `CC(C)Oc1cccc(NC(=O)c2cc3ccccc3cc2O)c1` [15a], where the note is “series A”, the logk is recorded as 0.6723 and the “πA (distributive parameter π calculated from logk)” value is 0.61.
As for `CC(C)Oc1ccccc1NC(=O)c1c(O)ccc2ccccc12` [14c], for the setting “series C”, the logk stood at 0.6145 and the “πC (distributive parameter π calculated from logk)” value was 0.66.
In the same order, the values of `CCC(C)Oc1ccc(NC(=O)c2c(O)ccc3ccccc23)cc1` (stereo not drawn) [19c] are 0.3621 and 0.91.
As for `CCCOc1ccccc1NC(=O)c1ccc2ccccc2c1O` [8b], under “series B”, the logk is 1.3103 and the “πB (distributive parameter π calculated from logk)” value is recorded as 0.74.
For `O=C(Nc1ccccc1)c1c(O)ccc2ccccc12` [1c], under “series C”, the logk was −0.0581 and the “πC (distributive parameter π calculated from logk)” value is 0.
In the same order, the values of `CCOc1ccccc1NC(=O)c1c(O)ccc2ccccc12` [5c] are 0.4759 and 0.39.
For `CCC(C)Oc1ccccc1NC(=O)c1ccc2ccccc2c1O` (stereo not drawn) [17b], where the note is “series B”, the logk is listed as 1.4424 and the “πB (distributive parameter π calculated from logk)” value is reported as 1.00.
In the same order, the values of `COc1ccccc1NC(=O)c1ccc2ccccc2c1O` [2b] are 0.8593 and 0.09.
For `CC(C)Oc1ccccc1NC(=O)c1cc2ccccc2cc1O` [14a], where the note is “series A”, the logk worked out at 0.6360 and the “πA (distributive parameter π calculated from logk)” value is on record as 0.66.
In the same order, the values of `CCCOc1cccc(NC(=O)c2cc3ccccc3cc2O)c1` [9a] are 0.7672 and 0.69.
As for `CCC(C)Oc1ccc(NC(=O)c2ccc3ccccc3c2O)cc1` (stereo not drawn) [19b], where the note is “series B”, the logk was 1.0518 and the “πB (distributive parameter π calculated from logk)” value was 0.94.
Regarding `CCCOc1ccccc1NC(=O)c1cc2ccccc2cc1O` [8a], under “series A”, the logk was 0.7221 and the “πA (distributive parameter π calculated from logk)” value is on record as 0.74.
For the molecule `CCCOc1ccccc1NC(=O)c1c(O)ccc2ccccc12` [8c], where the note is “series C”, the logk came out at 0.6639 and the “πC (distributive parameter π calculated from logk)” value is reported as 0.73.
In the same order, the values of `COc1ccc(NC(=O)c2c(O)ccc3ccccc23)cc1` [4c] are −0.1149 and −0.19.
As for `CCOc1ccccc1NC(=O)c1cc2ccccc2cc1O` [5a], where the note is “series A”, the logk was 0.5570 and the “πA (distributive parameter π calculated from logk)” value is 0.40.
`CCCCOc1cccc(NC(=O)c2ccc3ccccc3c2O)c1` [12b]: for the setting “series B”, the logk was 1.2088 and the “πB (distributive parameter π calculated from logk)” value was 1.02.
In the case of `CCOc1ccc(NC(=O)c2cc3ccccc3cc2O)cc1` [7a], where the note is “series A”, the logk is reported as 0.4916 and the “πA (distributive parameter π calculated from logk)” value is on record as 0.15.
In the case of `COc1cccc(NC(=O)c2c(O)ccc3ccccc23)c1` [3c], under “series C”, the logk is reported as 0.1106 and the “πC (distributive parameter π calculated from logk)” value is 0.02.
As to `COc1cccc(NC(=O)c2ccc3ccccc3c2O)c1` [3b], where the note is “series B”, the logk was determined as 0.6828 and the “πB (distributive parameter π calculated from logk)” value is reported as 0.04.
For `CCC(C)Oc1ccccc1NC(=O)c1cc2ccccc2cc1O` (stereo not drawn) [17a], under “series A”, the logk is recorded as 0.7956 and the “πA (distributive parameter π calculated from logk)” value is on record as 1.00.
In the same order, the values of `CC(C)Oc1ccc(NC(=O)c2cc3ccccc3cc2O)cc1` [16a] are 0.6017 and 0.59.
`CCCCOc1ccc(NC(=O)c2ccc3ccccc3c2O)cc1` [13b]: where the note is “series B”, the logk is reported as 1.1537 and the “πB (distributive parameter π calculated from logk)” value is reported as 1.08.
Turning to `CCCOc1ccc(NC(=O)c2cc3ccccc3cc2O)cc1` [10a], where the note is “series A”, the logk worked out at 0.6963 and the “πA (distributive parameter π calculated from logk)” value is given as 0.75.
Consider `CC(C)Oc1ccccc1NC(=O)c1ccc2ccccc2c1O` [14b], for which, where the note is “series B”, the logk is reported as 1.2556 and the “πB (distributive parameter π calculated from logk)” value was 0.66.
Turning to `CCC(C)Oc1cccc(NC(=O)c2c(O)ccc3ccccc23)c1` (stereo not drawn) [18c], for the setting “series C”, the logk is reported as 0.4129 and the “πC (distributive parameter π calculated from logk)” value was 0.91.
On the same counts, the results for `CCOc1ccc(NC(=O)c2c(O)ccc3ccccc23)cc1` [7c] are 0.0542 and 0.27.
Turning to `O=C(Nc1ccccc1)c1ccc2ccccc2c1O` [1b], for the setting “series B”, the logk amounted to 0.6755 and the “πB (distributive parameter π calculated from logk)” value was 0.
On to `CCCCOc1cccc(NC(=O)c2c(O)ccc3ccccc23)c1` [12c], for which, where the note is “series C”, the logk was found to be 0.5161 and the “πC (distributive parameter π calculated from logk)” value is listed as 1.00.
As to `CCCCOc1ccccc1NC(=O)c1ccc2ccccc2c1O` [11b], where the note is “series B”, the logk was 1.5122 and the “πB (distributive parameter π calculated from logk)” value is given as 1.08.
`CCC(C)Oc1ccccc1NC(=O)c1c(O)ccc2ccccc12` (stereo not drawn) [17c]: where the note is “series C”, the logk amounted to 0.7927 and the “πC (distributive parameter π calculated from logk)” value was 0.98.
On the same counts, the results for `CCCCOc1ccc(NC(=O)c2c(O)ccc3ccccc23)cc1` [13c] are 0.4604 and 1.05.
Turning to `CCCOc1cccc(NC(=O)c2ccc3ccccc3c2O)c1` [9b], where the note is “series B”, the logk stood at 1.0215 and the “πB (distributive parameter π calculated from logk)” value is given as 0.69.
Regarding `CCOc1cccc(NC(=O)c2c(O)ccc3ccccc23)c1` [6c], where the note is “series C”, the logk came to 0.1175 and the “πC (distributive parameter π calculated from logk)” value was 0.34.
As to `O=C(Nc1ccccc1)c1cc2ccccc2cc1O` [1a], for the setting “series A”, the logk was 0.3927 and the “πA (distributive parameter π calculated from logk)” value is recorded as 0.
In the same order, the values of `COc1ccc(NC(=O)c2cc3ccccc3cc2O)cc1` [4a] are 0.3374 and −0.15.
As to `CCCOc1ccc(NC(=O)c2c(O)ccc3ccccc23)cc1` [10c], where the note is “series C”, the logk came to 0.2622 and the “πC (distributive parameter π calculated from logk)” value was 0.72.
Consider `CCOc1ccccc1NC(=O)c1ccc2ccccc2c1O` [5b], for which, for the setting “series B”, the logk is listed as 1.0940 and the “πB (distributive parameter π calculated from logk)” value is listed as 0.40.
In the case of `CCOc1cccc(NC(=O)c2cc3ccccc3cc2O)c1` [6a], under “series A”, the logk is on record as 0.5682 and the “πA (distributive parameter π calculated from logk)” value is on record as 0.36.
On the same counts, the results for `CCCCOc1cccc(NC(=O)c2cc3ccccc3cc2O)c1` [12a] are 0.9711 and 1.02.
On the same counts, the results for `COc1cccc(NC(=O)c2cc3ccccc3cc2O)c1` [3a] are 0.4055 and 0.04.
`CCCOc1cccc(NC(=O)c2c(O)ccc3ccccc23)c1` [9c]: under “series C”, the logk is given as 0.3209 and the “πC (distributive parameter π calculated from logk)” value is 0.65.
On the same counts, the results for `CC(C)Oc1cccc(NC(=O)c2c(O)ccc3ccccc23)c1` [15c] are 0.2214 and 0.57.
`CCCCOc1ccccc1NC(=O)c1cc2ccccc2cc1O` [11a]: for the setting “series A”, the logk is reported as 0.9136 and the “πA (distributive parameter π calculated from logk)” value is given as 1.08.
Consider `CCC(C)Oc1ccc(NC(=O)c2cc3ccccc3cc2O)cc1` (stereo not drawn) [19a], for which, for the setting “series A”, the logk stood at 0.7977 and the “πA (distributive parameter π calculated from logk)” value was 0.09.
